Consider four compounds from US8012995B1, “Pharmaceutically active sulfonamide derivatives” (Merck Serono SA, priority 1999, dated 2011).

One data set deals with JNK3 (Homo sapiens, UniProt P53779). As to the kind of experiment: JNK3 in vitro assay (SPA, GST-c-Jun phosphorylation). It is filed as biochemical. The note with it: amount necessary to achieve 50% inhibition, GST-c-Jun substrate. The method, then: (§1) JNK 2 and 3 in vitro assays: JNK3 and/or 2 assays are performed in 96 well MTT plates, by incubation of 0.5 μg of recombinant pre-activated GST-JNK or GST-JNK2 with 1 μg of recombinant, biotinylated GST-c-Jun and 2 μM ^33γ-ATP (2 nCi/μl), in the to presence or absence of sulfonamide inhibitors if formula I and in a reaction volume of 50 μl containing 50 mM Tris-HCl, pH 8.0; 10 mM MgCl2; 1 mM Dithiothreitol, and 100 μM NaVO4. The incubation is performed for 120 min. at R.T and stopped upon addition of 200 μl of a solution containing 250 μg of Streptavidine-coated SPA beads (Amersham, Inc.)^•, 5 mM EDTA, 0.1% Triton X-100 and 50 μM ATP, in phosphate saline buffer. After incubation for 60 minutes at RT, beads are sedimented by centrifugation at 1500×g for 5 minutes, resuspended in 200 μl of PBS containing 5 mM EDTA, 0.1% Triton X-100 and 50 μM ATP and the radioactivity measured in a scintillation β counter, following sedimentation of the beads as described above. By substituting GST-c Jun for biotinylated GST-1ATF2 or myelin basic protein, this assay can be used to measure inhibition of preactivated p38 and ERK MAP Kinases, respectively.
(§2) The values indicated in respect of JNK2 and 3, p38 and ERK2 refer to the IC50 (μM), i.e. the amount necessary to achieve 50% inhibition of said target (e.g. JNK2). From the above table it could be derived that said test compounds according to formula I do have a significant effect both on JNK2 and 3, but virtually no effect onto p38 and ERK2, thus delivering a quite selective inhibitory effect.

The target in another data set is p38 (Homo sapiens, UniProt Q16539). Nature of the data set: p38 in vitro kinase assay (SPA, GST-ATF2 substrate). The class given is biochemical. The note with it: amount necessary to achieve 50% inhibition. Here is the method: as §1, §2
In data set [1] the test system is IL-2 release by PMA+Iono-stimulated Jurkat cells. Nature of the data set: IL-2 release assay (ELISA). It is filed as cell-based. The note with it: Homo sapiens, PMA+Ionomycine-stimulated Jurkat cells, 24 hours, read-out: % Inhibition of IL2 Production @3 uM. The method, then:
Jurkat cells, a human T cell leukemia cell line (American Type Culture Collection # TIB 152) were cultured in RPMI 1640 medium (Gibco, BRL) supplemented with 10% of […] FCS, Glutamine and Penstrep. The cell suspension in the medium is diluted to give 2.10^6 cells/mL. The cells were plated (2.10^5 cells/well) on a 96-well plate containing different concentration of test compound (final concentration of compounds, 10, 3, 1, […], 0.1 μM). This mixture is incubated 30 minutes at 37° C. in a humidified CO2 atmosphere. Cells were then treated with 10 ul PMA+Ionomycine (0.1 μM and 1 μM final concentration) in all wells except negative control. In wells without compounds, 10 μl of RPMI 2% DMSO (=0.1% final) is added. Cells are incubated 24 hours at 37° C. and then the supernatant harvested (freeze at −20° C. if not used the same day) prior to performing IL-2 ELISA test on the supernatant.
IL-2 release into the medium by PMA+Iono-stimulated Jurkat cells, in presence or absence of test compounds is assayed by ELISA. Following the procedure described below
Transfer 100 μl capture antibody diluted in PBS at 5 μg/mL into a 96 well ELISA plate and incubate overnight at room temperature.
Aspirate each well and wash 3 times with Wash buffer. After the last wash, damp the plate.
1. Saturate with 200 μl PBS-10% FCS. Incubate 1 hour at room temperature.
2. Repeat the wash step 2.
• 1. Add 100 μl of sample or standard ([…]) and incubate 2 hours at room temperature. • 2. Wash 3 times. • 3. Add 100 μl of biotinylated anti-human IL-2 at 12.5 ng/mL. Incubate 2 hours at room temperature. • 4. Wash 3 times. • 5. Add 100 μl streptavidin-HRP (Zymed #43-4323) at 1:10′000. Incubate 30 minutes at room temperature. • 6. Wash 3 times • 7. Add 100 μl substrate solution (citric acid/Na2HPO4 (1:1)+H2O2 1:2000+OPD). Incubate 20-30 minutes at room temperature. • 8. Add 50 μl of stop solution to each well. • 9. Determine optical density using a microliter plate reader set to 450 nm with correction at 570 nm.

The next data set deals with Hlr c-Jun HeLa cells. Nature of the data set: C-Jun reporter assay (Dual-Luciferase). It is filed as cell-based. As to conditions: Homo sapiens, Hlr c-Jun HeLa cells transfected with pMEKK1. The method, then:
Hlr c-Jun HeLa cells are cultured in DMEM High Glc supplemented with 10% FCS (Sigma), 2 mM Glutamine (Gibco), P/S, Hygromycin b 100 μg/mL and G418 250 μg/mL
The cell suspension are diluted with medium to give about 3.5×10^6 cells/mL and 1 mL of cell suspension are put onto 2 10 cm culture dishes containing 9 mL of culture medium.
• Control: 0.2 μg pTK Renilla, 5.8 μg pBluescript KS, 500 μl OPTIMEM (GIBCO), 18 μl Fugene 6 • Induced: 0.1 μg pMEKK1, 0.2 μg pTK Renilla, 5.7 μg pBluescript KS, 500 μl OPTIMEM (GIBCO), 18 μl Fugene 6 30′ RT
The transfection mixture is added to the plated cells. The plates are incubated over night at 37° C. in a humidified atmosphere of 5% CO2 in air
A 96 wells plate containing 100 μl of culture medium per well is prepared
Negative control (vehicle): 2 μl of DMSO is added to the 100 μl (in triplicate).
Compound: 2 μl of Hit compound stock dilution are added to the 100 μl (in triplicate).
The transfected cells are trypsinised and ressuspend in 12 mL of culture medium.
100 μl of the dilution are added to each of the 96 wells plate.
The plate is incubated over night at 37° C. in a humidified atmosphere of 5% CO2 in air
Dual-Luciferase™ Reporter Assay System (Promega)
The medium is removed from the plate and the cells washed two times with 100 μl PBS Completely remove the rinse solution before applying PLB reagent. Dispense into each culture well […] of 1×PLB. Place the culture plates on a rocking platform or orbital shaker with gentle
rocking/shaking to ensure complete and even coverage of the cell monolayer with 1×PLB. Rock the culture plates at room temperature for 15 minutes. Transfer 20 μl of the lysate into a white opaque 96 wells plate. Read in a luminometer.
• Inject 50 μl of Luciferase Assay Reagent II wait 5″, read 10″ • Inject 50 μl of Stop & Glo® Reagent wait 5″, read 10″ Check RLU Luciferase/RLU Renilla *1000

A further data set deals with ERK2 (Homo sapiens, UniProt P28482). Nature of the data set: ERK2 in vitro kinase assay (SPA, myelin basic protein substrate). As to conditions: amount necessary to achieve 50% inhibition. The class given is biochemical. Here is the method: as §1, §2
For a further data set, the target named is JNK2 (Homo sapiens, UniProt P45984). As to the kind of experiment: JNK2 in vitro assay (SPA, GST-c-Jun phosphorylation). It is filed as biochemical. As to conditions: amount necessary to achieve 50% inhibition, GST-c-Jun substrate. The method, then: as §1, §2
Sequence of JNK2 (P45984 whole entry, species assumed): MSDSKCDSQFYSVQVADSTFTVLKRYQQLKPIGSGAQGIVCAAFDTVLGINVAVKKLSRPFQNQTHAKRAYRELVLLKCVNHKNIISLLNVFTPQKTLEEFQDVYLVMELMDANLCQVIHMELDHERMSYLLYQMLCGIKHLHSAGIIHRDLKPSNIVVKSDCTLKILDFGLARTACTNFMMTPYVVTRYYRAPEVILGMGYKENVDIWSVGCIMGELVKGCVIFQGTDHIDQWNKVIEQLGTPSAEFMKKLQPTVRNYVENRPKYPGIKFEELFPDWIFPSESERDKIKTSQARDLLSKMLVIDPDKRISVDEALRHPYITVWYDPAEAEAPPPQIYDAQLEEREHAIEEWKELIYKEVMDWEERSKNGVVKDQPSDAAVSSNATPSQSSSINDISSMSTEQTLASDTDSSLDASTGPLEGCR

Sequence of JNK3 (P53779 whole entry, species assumed): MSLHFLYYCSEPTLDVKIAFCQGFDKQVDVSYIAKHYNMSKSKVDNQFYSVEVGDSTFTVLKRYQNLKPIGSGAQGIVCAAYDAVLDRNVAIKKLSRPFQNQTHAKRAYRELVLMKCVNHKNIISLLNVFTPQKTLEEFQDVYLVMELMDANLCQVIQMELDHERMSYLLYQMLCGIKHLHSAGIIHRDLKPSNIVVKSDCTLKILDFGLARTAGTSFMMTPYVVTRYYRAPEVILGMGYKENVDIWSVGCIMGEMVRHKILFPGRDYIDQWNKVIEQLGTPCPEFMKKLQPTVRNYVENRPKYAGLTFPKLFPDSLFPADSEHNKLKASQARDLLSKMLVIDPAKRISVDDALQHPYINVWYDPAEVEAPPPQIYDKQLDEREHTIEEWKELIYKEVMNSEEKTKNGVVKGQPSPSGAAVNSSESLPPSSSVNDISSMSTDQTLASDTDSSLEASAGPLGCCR
Sequence of ERK2 (P28482 whole entry, species assumed): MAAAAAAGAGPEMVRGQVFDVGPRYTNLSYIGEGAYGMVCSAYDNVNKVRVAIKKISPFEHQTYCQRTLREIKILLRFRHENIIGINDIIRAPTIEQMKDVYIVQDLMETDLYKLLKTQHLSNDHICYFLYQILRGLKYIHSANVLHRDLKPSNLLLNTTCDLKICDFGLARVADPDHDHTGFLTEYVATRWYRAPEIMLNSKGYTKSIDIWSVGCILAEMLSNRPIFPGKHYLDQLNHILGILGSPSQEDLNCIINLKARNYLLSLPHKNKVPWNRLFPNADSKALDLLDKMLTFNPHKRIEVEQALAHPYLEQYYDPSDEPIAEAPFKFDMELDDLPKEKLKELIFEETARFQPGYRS
Sequence of p38 (Q16539 whole entry): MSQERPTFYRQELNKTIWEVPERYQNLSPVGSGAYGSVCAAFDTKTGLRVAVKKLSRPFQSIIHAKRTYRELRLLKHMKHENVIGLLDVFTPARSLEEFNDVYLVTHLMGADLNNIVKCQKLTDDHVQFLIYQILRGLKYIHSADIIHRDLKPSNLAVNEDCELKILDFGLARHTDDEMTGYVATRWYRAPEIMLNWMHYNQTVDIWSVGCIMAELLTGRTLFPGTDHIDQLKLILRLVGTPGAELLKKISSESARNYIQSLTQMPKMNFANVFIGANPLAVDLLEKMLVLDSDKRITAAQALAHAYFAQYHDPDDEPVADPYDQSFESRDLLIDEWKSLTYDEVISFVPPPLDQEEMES

In the case of `O=C(NCc1ccc(S(=O)(=O)N2CCC(Nc3cccc(S(=O)(=O)C(F)(F)F)c3)CC2)s1)c1ccc(Cl)cc1` [Example 2, 4-Chloro-N-{5-[4-(3-Trifluoromethanesulfonyl-phenylamino)-piperidine-1-sulfonyl]-thiophen-2-ylmethyl}-benzamide], the melting point lay in the range of 198 to 199 °C.
As for `COc1cccc(NC2CCN(S(=O)(=O)c3ccc(CNC(=O)c4ccc([N+](=O)[O-])cc4)s3)CC2)c1` [Example 204, 4-nitro-N-[(5-{[4-(3-methoxyanilino)piperidin-1-yl]sulfonyl}thien-2-yl)methyl]-benzamide], the IC50 against JNK3 was 170 nM; at p38, greater than 30 µM; against ERK2 it was greater than 30 µM; against JNK2, 220 nM. Besides, the inhibition at 3 µM in data set [1] was greater than 30%. Besides, the inhibition at 10 µM in the data set with Hlr c-Jun HeLa cells was greater than 30%.
With `CCCc1cccc(NC2CCN(S(=O)(=O)c3ccc(CNC(=O)c4ccc(Cl)cc4)s3)CC2)c1` [Example 110, 4-chloro-N-{[5-({4-[3-propylanilino]piperidin-1-yl}sulfonyl)thien-2-yl]methyl}benzamide], the melting point lay within 169 to 170 °C. On JNK3, this compound showed an IC50 of 110 nM. At p38, the half-maximal inhibitory concentration (IC50) is greater than 30 µM. The inhibition at 3 µM in data set [1] was greater than 30%. This compound came in with an inhibition at 10 µM in the data set with Hlr c-Jun HeLa cells greater than 30%. At ERK2, this compound showed a half-inhibitory concentration (IC50) greater than 30 µM. In addition, at JNK2, the IC50 came to 310 nM.
As to `O=C(NCc1ccc(S(=O)(=O)N2CCC(n3nnc4ccccc43)CC2)s1)c1ccccc1O` [Example 271, N-[(5-{[4-(1H-1,2,3-benzotriazol-1-yl)piperidin-1-yl]sulfonyl}thien-2-yl)methyl]-2-hydroxybenzamide], the IC50 against JNK3 was 360 nM; at p38, greater than 30 µM; against ERK2 it was greater than 30 µM; against JNK2 it was 220 nM. Moreover, in data set [1], the inhibition at 3 µM was greater than 30%. For the same compound, in the data set with Hlr c-Jun HeLa cells, the inhibition at 10 µM is greater than 30%.
